According to ChEMBL document CHEMBL1201862, “PubChem BioAssay data set” (2004):
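These data come from cells grown in 96-well plates and exposed to compound for 48 hours at five concentrations. GI50 marks 50% less growth.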 Calls of active or inactive are those of the source. Rule as the data show it: active = GI50 up to about 1.1 µM and inactive = higher.

Key:
Assay in all cases: inhibition of tumour cell growth, NCI panel, 48 h
[1] = test system: SR
[2] = test system: SW-620
[3] = test system: DU-145
[4] = test system: SNB-19
[5] = test system: KM12
[6] = test system: SK-MEL-5
[7] = test system: HT-29
[8] = test system: T47D
[9] = test system: A498
[10] = test system: CCRF-CEM
[11] = test system: NCI-H23
[12] = test system: SN12C
[13] = test system: SF-268
[14] = test system: CAKI-1
[15] = test system: ACHN
[16] = test system: UO-31
[17] = test system: DMS-273
[18] = test system: SK-MEL-28
[19] = test system: MOLT-4
[20] = test system: HOP-92

| Compound | GI50 [1] | GI50 [2] | GI50 [3] | GI50 [4] | GI50 [5] | GI50 [6] | GI50 [7] | GI50 [8] | GI50 [9] | GI50 [10] | GI50 [11] | GI50 [12] | GI50 [13] | GI50 [14] | GI50 [15] | GI50 [16] | GI50 [17] | GI50 [18] | GI50 [19] | GI50 [20] |
| --- | --- | --- | --- | --- | --- | --- | --- | --- | --- | --- | --- | --- | --- | --- | --- | --- | --- | --- | --- | --- |
| COC(=O)c1ccccc1OCc1cc(=O)oc2ccc(C)cc12 | > 100 µM (inactive) | > 65.8 µM (inactive) | > 100 µM (inactive) | 14.7 µM (inactive) | > 100 µM (inactive) | > 100 µM (inactive) | 49.5 µM (inactive) | 4.7 µM (inactive) | > 100 µM (inactive) | > 100 µM (inactive) | > 100 µM (inactive) | > 100 µM (inactive) | 29.1 µM (inactive) | 52.5 µM (inactive) | 63.2 µM (inactive) | > 100 µM (inactive) | 71.3 µM (inactive) | > 100 µM (inactive) | > 100 µM (inactive) | 24 µM (inactive) |
| C=C1CC2(OC1=O)c1ccccc1C=Cc1ccccc12 | 0.82 µM (active) | 1.5 µM (inactive) | 11.5 µM (inactive) | 16 µM (inactive) | 4.05 µM (inactive) | 7.33 µM (inactive) | 2.44 µM (inactive) | 1.93 µM (inactive) | 8.24 µM (inactive) | 0.697 µM (active) | 6.32 µM (inactive) | 2.66 µM (inactive) | 7.23 µM (inactive) | 3.05 µM (inactive) | 4.8 µM (inactive) | 8.3 µM (inactive) | 14.8 µM (inactive) | 4.34 µM (inactive) | 1.81 µM (inactive) | 1.61 µM (inactive) |
| O=[N+]([O-])c1ccc(/C=N/C2CCCCC2)cc1 | > 100 µM (inactive) | > 100 µM (inactive) |  | > 100 µM (inactive) | > 100 µM (inactive) | > 100 µM (inactive) | > 100 µM (inactive) |  | > 100 µM (inactive) | > 100 µM (inactive) | > 100 µM (inactive) | > 100 µM (inactive) | > 100 µM (inactive) | > 100 µM (inactive) | > 100 µM (inactive) | > 100 µM (inactive) | > 100 µM (inactive) | > 100 µM (inactive) | > 100 µM (inactive) | > 100 µM (inactive) |
| CCC(C)(O)c1cn(-c2cccc(S(=O)(=O)O)c2)nn1 (configuration not stated) | > 100 µM (inactive) | > 100 µM (inactive) |  | > 100 µM (inactive) | > 100 µM (inactive) | > 100 µM (inactive) | > 100 µM (inactive) |  | > 100 µM (inactive) | > 100 µM (inactive) | > 100 µM (inactive) | > 100 µM (inactive) | > 100 µM (inactive) | > 100 µM (inactive) | > 100 µM (inactive) | > 100 µM (inactive) | > 100 µM (inactive) | > 100 µM (inactive) | > 100 µM (inactive) | > 100 µM (inactive) |
| CCOc1ccc(NC(=O)CC2SC(Nc3ccc(C)cc3C)=NC2=O)cc1 (configuration not stated) | 29.5 µM (inactive) | > 100 µM (inactive) |  | 54.3 µM (inactive) |  | > 100 µM (inactive) | > 100 µM (inactive) |  | > 100 µM (inactive) | 29.2 µM (inactive) | > 100 µM (inactive) | > 100 µM (inactive) | 43.6 µM (inactive) | > 100 µM (inactive) | > 100 µM (inactive) | > 100 µM (inactive) | > 100 µM (inactive) | > 100 µM (inactive) | 21.4 µM (inactive) | > 100 µM (inactive) |
| COc1ccc(CCNCCCC2c3ccccc3-c3ccccc32)cc1OC | 8.22 µM (inactive) | 7.33 µM (inactive) | 15.5 µM (inactive) | 16.7 µM (inactive) | 15.1 µM (inactive) | 10.6 µM (inactive) | 5.06 µM (inactive) | 17.1 µM (inactive) | 8.02 µM (inactive) | 24.3 µM (inactive) | 15 µM (inactive) | 15 µM (inactive) | 15.1 µM (inactive) | 18.4 µM (inactive) | 16.1 µM (inactive) | 11.6 µM (inactive) | 7.28 µM (inactive) | 9.44 µM (inactive) | 22.6 µM (inactive) | 5.71 µM (inactive) |
| COc1ccc(NC(=O)CCc2cc(C(C)(C)C)[nH]n2)cc1 | > 100 µM (inactive) | > 100 µM (inactive) |  | > 100 µM (inactive) | > 100 µM (inactive) | > 100 µM (inactive) | > 100 µM (inactive) |  | > 100 µM (inactive) | > 100 µM (inactive) | > 100 µM (inactive) | > 100 µM (inactive) | > 100 µM (inactive) | > 100 µM (inactive) | > 100 µM (inactive) | > 100 µM (inactive) | > 100 µM (inactive) | > 100 µM (inactive) | > 100 µM (inactive) | > 100 µM (inactive) |
| CCOC(=O)CC1(C(=O)OCC)c2[nH]c3ccccc3c2CCN1Cc1ccccc1 (configuration not stated) | 22 µM (inactive) | 31.7 µM (inactive) |  | 38.4 µM (inactive) | 17.7 µM (inactive) | 20 µM (inactive) | 14.4 µM (inactive) |  | 19.3 µM (inactive) | 23.7 µM (inactive) | 15.9 µM (inactive) | 14.2 µM (inactive) | 20.2 µM (inactive) | 31 µM (inactive) | 21.2 µM (inactive) | 18.4 µM (inactive) | 17.3 µM (inactive) | 20.4 µM (inactive) | 13.5 µM (inactive) | 17.5 µM (inactive) |
| CN(C)[C@@H]1C(O)=C(C(=O)NCNCCCC(=O)O)C(=O)[C@@]2(O)C(O)=C3C(=O)c4c(O)cccc4[C@@](C)(O)[C@H]3C[C@@H]12 | > 100 µM (inactive) | > 100 µM (inactive) |  | > 100 µM (inactive) | > 100 µM (inactive) | > 100 µM (inactive) | > 100 µM (inactive) |  | > 100 µM (inactive) | > 100 µM (inactive) | > 100 µM (inactive) | > 100 µM (inactive) | > 100 µM (inactive) | > 100 µM (inactive) | > 100 µM (inactive) | > 100 µM (inactive) | > 100 µM (inactive) | > 100 µM (inactive) | > 100 µM (inactive) | > 100 µM (inactive) |
| CNc1cccc(-c2cc(O)c3cc4c(cc3n2)OCO4)c1 | 0.0407 µM (active) | 0.283 µM (active) | 0.303 µM (active) | 0.432 µM (active) | 0.177 µM (active) | 0.0847 µM (active) | 0.3 µM (active) | 52 µM (inactive) | 0.307 µM (active) | 0.236 µM (active) | 0.436 µM (active) | 0.553 µM (active) | 1.05 µM (active) | 0.237 µM (active) | 0.883 µM (active) | 0.509 µM (active) | 0.35 µM (active) | 0.859 µM (active) | 0.581 µM (active) | 0.533 µM (active) |
| N#C/C(=C\c1ccc2[nH]ccc2c1)C(=O)c1ccc(O)c(O)c1 | 44.2 µM (inactive) | 55.2 µM (inactive) | 45.7 µM (inactive) | 50 µM (inactive) | > 100 µM (inactive) | > 75.2 µM (inactive) | 69 µM (inactive) | 62.8 µM (inactive) | > 100 µM (inactive) | 24.5 µM (inactive) | > 100 µM (inactive) | > 82.4 µM (inactive) | > 64.9 µM (inactive) | > 100 µM (inactive) | 45.8 µM (inactive) | 45 µM (inactive) | 57.3 µM (inactive) | > 100 µM (inactive) | 44.7 µM (inactive) | 53 µM (inactive) |
